Consider six compounds from patent US4795751A, “5-substituted-6,8-difluoroquinolines useful as antibacterial agents” (Dainippon Pharmaceutical Co., Ltd., priority 1985, dated 1989).

One series deals with Ac. calcoaceticus P-6901. As to the kind of experiment: In vitro antibacterial activity, twofold agar-dilution method. Format: cell-based. Particulars: Acinetobacter calcoaceticus, P6901; Ac. calcoaceticus P-6901 (Gram -); Mueller-Hinton agar, 20 h, 37° C.; calculated for free base; read-out: minimum inhibitory concentration (MIC). The method, then: (§1) The numbers in the table show minimum inhibitory concentrations (MIC) (μg/ml), calculated for free base. The minimum inhibitory concentration was determined by the twofold agar-dilution method, which was recommended by Japan Society of Chemotherapy (Chemotherapy, 29(1), 76(1981)), using Muller-Hinton agar. One loopful of an overnight culture of test organisms in Mueller-Hinton broth was inoculated onto 10-ml drug-containing agar layers in petri dishes. Bacterial inocula contained approximately 10^6 colonyl-formingunits. Bacterial growth was observed after 20-hour incubation at 37° C. The MIC was defined as the lowest drug concentration which prevented visible bacterial growth.

The next series concerns Al. faecalis P-7001. The series is described as above. Particulars: Alcaligenes faecalis, P7001; Al. faecalis P-7001 (Gram -); Mueller-Hinton agar, 20 h, 37° C.; calculated for free base; read-out: minimum inhibitory concentration (MIC). Format: cell-based. As for the experimental part:
as §1

In the next series the test system is B. subtilis PCI 219. The series is described as above. It is filed as cell-based. Particulars: Bacillus subtilis, PCI219; B. subtilis PCI 219 (Gram +); Mueller-Hinton agar, 20 h, 37° C.; calculated for free base; read-out: minimum inhibitory concentration (MIC). As for the experimental part:
as §1

The subject of the next series is E. coli P-51213. The series is described as above. It is filed as cell-based. The following applies: Escherichia coli, P51213; E. coli P-51213 (Gram -); Mueller-Hinton agar, 20 h, 37° C.; calculated for free base; read-out: minimum inhibitory concentration (MIC). As for the experimental part: as §1
For another series, the system named is P. aeruginosa No. 12. The description is as above. Format: cell-based. The following applies: Pseudomonas aeruginosa; P. aeruginosa No. 12 (Gram -); Mueller-Hinton agar, 20 h, 37° C.; calculated for free base; read-out: minimum inhibitory concentration (MIC). As for the experimental part:
as §1

The subject of a further series is S. aureus 209P JC-1. Described as above. It is filed as cell-based. The following applies: Staphylococcus aureus; S. aureus 209P JC-1 (Gram +); Mueller-Hinton agar, 20 h, 37° C.; calculated for free base; read-out: minimum inhibitory concentration (MIC). As for the experimental part:
as §1

For the next series, the system named is S. aureus No. 50774. The description is as above. Format: cell-based. The following applies: Staphylococcus aureus; S. aureus No. 50774 (Gram +); Mueller-Hinton agar, 20 h, 37° C.; calculated for free base; read-out: minimum inhibitory concentration (MIC). The method, then: as §1
The subject of another series is S. aureus No. 80. Described as above. It is filed as cell-based. Particulars: Staphylococcus aureus; S. aureus No. 80 (Gram +); Mueller-Hinton agar, 20 h, 37° C.; calculated for free base; read-out: minimum inhibitory concentration (MIC). The method, then: as §1
The next series deals with S. epidermidis No. 8. The description is as above. Format: cell-based. Particulars: Staphylococcus epidermidis; S. epidermidis No. 8 (Gram +); Mueller-Hinton agar, 20 h, 37° C.; calculated for free base; read-out: minimum inhibitory concentration (MIC). As for the experimental part: as §1
Another series deals with M. bovis P-7101. As to the kind of experiment: microbe, parasite or virus in culture. The following applies: Mycobacterium tuberculosis variant bovis, P7101, 20 h, read-out: minimum inhibitory concentration (MIC). Format: cell-based.
Series [1] can be described thus: Acute oral toxicity in mice. Particulars: mouse, in vivo, po. As for the experimental part: (§2) A solution containing each of compounds 1, 2 and 3 of this invention in various concentrations was orally given to male mice (ddY) at a dose of 0.1 ml per 10 g of body weight. The number of dead mice was counted after 7 days, and the value of median lethal dose (LD50, mg/kg) was calculated in accordance with the Behrens-Kaerber method.

A further series relates to male mice (ddY). As to the kind of experiment: Acute oral toxicity in mice. Particulars: conclusion in words from Table 5. As for the experimental part: as §2
Series [2] has as its system Streptococcus pyogenes A65. As to the kind of experiment: In vivo efficacy against systemic infections in mice. Further details: species or system Streptococcus pyogenes; male mice (ddY-S). Particulars: A65, 168 h, oral, intraperitoneal infection 3×10^7 cells, twice, immediately and 6 h after infection, 7 days, calculated for free base, read-out: median effective dose (ED50). The method, then:
(§3) Compounds were each dissolved in deionized water. Each of the solutions was orally administered to mice infected with each of the test organisms under the conditions shown hereinbelow, and the median effective dose (ED50) was calculated by probit analysis. The numerals in the table show ED50 (mg/kg) value, calculated for free base.
(§4) Mice: Male mice (ddY-S) weighing about 20 g
Streptococcus pyogenes A65
Intraperitoneal infection with 3×10^7 cells per mouse suspended in brain heart infusion broth.
(§5) Four times, immediately, 6, 24 and 30 hours after infection in case of Streptococcus pneumoniae 1 Neufeld. Twice, immediately and 6 hours after infection in case of other organisms.
(§6) For 14 days in case of Staphylococcus aureus 50774 and Streptocuccus pneumoniae 1 Neufeld. For 7 days in case of other organisms.

The subject of series [3] is Pseudomonas aeruginosa 12. Described as above. More on the design: species or system Pseudomonas aeruginosa; male mice (ddY-S). Particulars: Pseudomonas aeruginosa, 12, 168 h, oral, intraperitoneal infection about 5×10^3 cells, 4% mucin, twice, immediately and 6 h after infection, 7 days, calculated for free base, read-out: median effective dose (ED50). As for the experimental part: as §3, §4
Pseudomonas aeruginosa 12
Intraperitoneal infection with about 5×10^3 cells per mouse suspended in tryptosoy broth with 4% mucin.
as §5, §6

In brackets after ≈: the same amount, converted by molar mass.

For the compound `CC1CN(c2c(F)c(N)c3c(=O)c(C(=O)O)cn(C4CC4)c3c2F)CC(C)N1` (stereo not drawn) [Compound 2, 5-Amino-1-cyclopropyl-6,8-difluoro-7-(3,5-dimethyl-1-piperazinyl)-1,4-dihydro-4-oxoquinoline-3-carboxylic acid], the MIC in the series on Ac. calcoaceticus P-6901 is 0.0125 µg/mL (≈ 0.0319 µM); in the series on Al. faecalis P-7001, 0.2 µg/mL (≈ 0.51 µM); in the series on B. subtilis PCI 219 it was 0.05 µg/mL (≈ 0.127 µM); in the series with E. coli P-51213 it was 0.05 µg/mL (≈ 0.127 µM); with P. aeruginosa No. 12, 0.2 µg/mL (≈ 0.51 µM); in the series with S. aureus 209P JC-1, 0.05 µg/mL (≈ 0.127 µM). Further, the MIC in the series with S. aureus No. 50774 was 0.025 µg/mL (≈ 0.0637 µM); in the series on S. aureus No. 80, 0.0125 µg/mL (≈ 0.0319 µM); with S. epidermidis No. 8 it was 0.025 µg/mL (≈ 0.0637 µM); in the series on M. bovis P-7101, 0.39 µg/mL (≈ 0.994 µM). In series [1], the LD50 at 168 h was > 2000 mg/kg. Moreover, in the series with male mice (ddY), the oral toxicity entry was “low oral toxicity”.

For `Nc1c(F)c(N2CCNCC2)c(F)c2c1c(=O)c(C(=O)O)cn2C1CC1` [Compound 3, 5-Amino-1-cyclopropyl-6,8-difluoro-7-(1-piperazinyl)-1,4-dihydro-4-oxoquinoline-3-carboxylic acid], the MIC was 0.05 µg/mL (≈ 0.137 µM) in the series with Ac. calcoaceticus P-6901; 0.2 µg/mL (≈ 0.549 µM) in the series on Al. faecalis P-7001; 0.1 µg/mL (≈ 0.274 µM) with B. subtilis PCI 219; 0.1 µg/mL (≈ 0.274 µM) in the series on E. coli P-51213; 0.2 µg/mL (≈ 0.549 µM) with P. aeruginosa No. 12; 0.05 µg/mL (≈ 0.137 µM) with S. aureus 209P JC-1. Also, the MIC in the series on S. aureus No. 50774 is 0.05 µg/mL (≈ 0.137 µM); in the series with S. aureus No. 80 it was 0.05 µg/mL (≈ 0.137 µM); in the series with S. epidermidis No. 8 it was 0.05 µg/mL (≈ 0.137 µM); with M. bovis P-7101, 0.39 µg/mL (≈ 1.07 µM). For the same compound, in [1], the LD50 at 168 h was > 2000 mg/kg. For the same compound, the oral toxicity result with male mice (ddY) was “low oral toxicity”.

As to `CN1CCN(c2c(F)c(N)c3c(=O)c(C(=O)O)cn(C4CC4)c3c2F)CC1` [Compound 4, 5-Amino-1-cyclopropyl-6,8-difluoro-7-(4-methyl-1-piperazinyl)-1,4-dihydro-4-oxoquinoline-3-carboxylic acid], the MIC was 0.025 µg/mL (≈ 0.0661 µM) in the series on Ac. calcoaceticus P-6901; 0.2 µg/mL (≈ 0.529 µM) in the series on Al. faecalis P-7001; 0.1 µg/mL (≈ 0.264 µM) with B. subtilis PCI 219; 0.1 µg/mL (≈ 0.264 µM) in the series on E. coli P-51213; 0.2 µg/mL (≈ 0.529 µM) in the series with P. aeruginosa No. 12; 0.1 µg/mL (≈ 0.264 µM) with S. aureus 209P JC-1. Also, the MIC in the series on S. aureus No. 50774 was 0.05 µg/mL (≈ 0.132 µM); in the series with S. aureus No. 80, 0.025 µg/mL (≈ 0.0661 µM); with S. epidermidis No. 8 it was 0.05 µg/mL (≈ 0.132 µM); with M. bovis P-7101, 0.39 µg/mL (≈ 1.03 µM).

In the case of `CCN1CCN(c2c(F)c(N)c3c(=O)c(C(=O)O)cn(C4CC4)c3c2F)CC1` [Compound 5, 5-Amino-1-cyclopropyl-6,8-difluoro-7-(4-ethyl-1-piperazinyl)-1,4-dihydro-4-oxoquinoline-3-carboxylic acid], the MIC in the series on Ac. calcoaceticus P-6901 was 0.0125 µg/mL (≈ 0.0319 µM); in the series on Al. faecalis P-7001, 0.2 µg/mL (≈ 0.51 µM); in the series on B. subtilis PCI 219 it was 0.1 µg/mL (≈ 0.255 µM); with E. coli P-51213, 0.05 µg/mL (≈ 0.127 µM); in the series with P. aeruginosa No. 12 it was 0.39 µg/mL (≈ 0.994 µM); in the series on S. aureus 209P JC-1, 0.05 µg/mL (≈ 0.127 µM). Besides, the MIC was 0.025 µg/mL (≈ 0.0637 µM) in the series on S. aureus No. 50774, 0.025 µg/mL (≈ 0.0637 µM) in the series with S. aureus No. 80, 0.05 µg/mL (≈ 0.127 µM) in the series on S. epidermidis No. 8 and 0.39 µg/mL (≈ 0.994 µM) in the series on M. bovis P-7101.

As for `Nc1c(F)c(N2CCNC(CF)C2)c(F)c2c1c(=O)c(C(=O)O)cn2C1CC1` (stereo not drawn) [Compound 6, 5-Amino-1-cyclopropyl-6,8-difluoro--7-(3-fluoromethyl-1-piperazinyl)-1,4-dihydro-4-oxoquinoline-3-carboxylic acid], the MIC is 0.0063 µg/mL (≈ 0.0159 µM) in the series with Ac. calcoaceticus P-6901; 0.05 µg/mL (≈ 0.126 µM) in the series with Al. faecalis P-7001; 0.025 µg/mL (≈ 0.0631 µM) in the series on B. subtilis PCI 219; 0.05 µg/mL (≈ 0.126 µM) in the series with E. coli P-51213; 0.2 µg/mL (≈ 0.505 µM) in the series with P. aeruginosa No. 12; 0.025 µg/mL (≈ 0.0631 µM) in the series with S. aureus 209P JC-1. The MIC was 0.0125 µg/mL (≈ 0.0315 µM) with S. aureus No. 50774, 0.0063 µg/mL (≈ 0.0159 µM) in the series with S. aureus No. 80, 0.025 µg/mL (≈ 0.0631 µM) in the series with S. epidermidis No. 8 and 0.1 µg/mL (≈ 0.252 µM) with M. bovis P-7101.

On to `CCn1cc(C(=O)O)c(=O)c2c(N)c(F)c(N3CCNCC3)c(F)c21` [Compound A, 5-amino-1-ethyl-6,8-difluoro-7-(1-piperazinyl)-1,4-dihydro-4-oxoquinoline-3-carboxylic acid, reference compound], for which the MIC in the series on Ac. calcoaceticus P-6901 was 0.2 µg/mL (≈ 0.568 µM); in the series on Al. faecalis P-7001, 0.78 µg/mL (≈ 2.21 µM); with B. subtilis PCI 219 it was 0.39 µg/mL (≈ 1.11 µM); in the series with E. coli P-51213, 0.39 µg/mL (≈ 1.11 µM); in the series with P. aeruginosa No. 12 it was 0.78 µg/mL (≈ 2.21 µM); with S. aureus 209P JC-1 it was 0.2 µg/mL (≈ 0.568 µM). Moreover, the MIC in the series on S. aureus No. 50774 is 0.2 µg/mL (≈ 0.568 µM); in the series on S. aureus No. 80 it was 0.2 µg/mL (≈ 0.568 µM); in the series with S. epidermidis No. 8 it was 0.39 µg/mL (≈ 1.11 µM); with M. bovis P-7101, 3.13 µg/mL (≈ 8.88 µM). Moreover, the ED50 in series [2] was > 25 mg/kg; in [3] it was 15 mg/kg.
